Laboratory results from patent US8097730B2, “Bicyclic heterocycles useful as selective androgen receptor modulators” (Janssen Pharmaceutica N.V., priority 2006, dated 2012).
Like-named read-outs stand apart in the source and are kept apart here.

Legend:
[1] = tested on: Immature castrated male Sprague Dawley rats; ventral prostate and seminal vesicle; experiment: Ventral Prostate and Seminal Vesicle Weight In Vivo Assay (antagonist activity, percent inhibition of testosterone-enhanced tissue weights); design: species or system rat; key to Inhibition of prostate (non-weight prostate weight, mg): level 1 agonist active if it produced greater than or equal to 30% stimulation of levator ani or ventral prostate at 30 mg/kg; level 2 agonist active if it produced greater than or equal to 5% but less than 30% stimulation of levator ani or ventral prostate at 30 mg/kg; listed herein as “inactive” as they did not meet the specified criteria defined above; conditions: compound oral once daily for five days with testosterone propionate 2 mg/kg s.c., classes defined at 30 mg/kg; for inhibition in vivo at 30 mg/kg: Rattus norvegicus, 120 h
Experimental: Ventral Prostate and Seminal Vesicle Weight In Vivo Assay
Immature (approximately 50 g) castrated male Sprague Dawley rats (Charles River) were treated once daily for five days with test compound ([…], in 30% cyclodextrin or 0.5% methylcellulose vehicle) and with testosterone propionate (given subcutaneously by injection at the nape of the neck at 2 mg/kg, in a volume of 0.1 mL in sesame oil). On the sixth day, the rats were euthanized by asphyxiation in carbon dioxide. Ventral prosatates and seminal vesicles were removed and their wet weights determined. Test compound activity was determined as the percent inhibition of testosterone-enhanced tissue weights, with a vehicle-treated control group set to zero percent and a testosterone alone-treated control group set to 100%.
Representative compounds of the present invention were tested according to the procedure described, with results as listed in Table 4 below.

[2] = tested on: Immature castrated male Sprague Dawley rats; ventral prostate and levator ani; experiment: Ventral Prostate and Levator Ani Weight In Vivo Assay (agonist activity, percent stimulation of tissue weight); design: species or system rat; key to % Prostate Stimulation: level 1 agonist active if it produced greater than or equal to 30% stimulation of levator ani or ventral prostate at 30 mg/kg; level 2 agonist active if it produced greater than or equal to 5% but less than 30% stimulation of levator ani or ventral prostate at 30 mg/kg; listed herein as “inactive” as they did not meet the specified criteria defined above; conditions: once daily for five days, oral, vehicle = 0%, testosterone alone = 100%, classes defined at 30 mg/kg; for change in vivo at 30 mg/kg: Rattus norvegicus, 120 h
Experimental: Ventral Prostate and Levator Ani Weight In Vivo Assay
Immature (approximately 50 g) castrated male Sprague Dawley rats (Charles River) were treated once daily for five days with test compound (usually given orally at 40 mg/kg in a volume of 0.3 mL, in 30% cyclodextrin or 0.5% methylcellulose vehicle) and with testosterone propionate (given subcutaneously by injection at the nape of the neck at 2 mg/kg, in a volume of 0.1 mL in sesame oil). On the sixth day, the rats were euthanized by asphyxiation in carbon dioxide. Ventral prostates and levator ani muscles were removed and their wet weights determined.
Test compound activity was determined as the percent stimulation of tissue weight, with the vehicle-treated control group set to zero percent and the testosterone alone-treated control group set to 100%. A compound was designated as level 1 agonist active if it produced greater than or equal to 30% stimulation of levator ani or ventral prostate at 30 mg/kg. A compound was designated as level 2 agonist active if it produced greater than or equal to 5% but less than 30% stimulation of levator ani or ventral prostate at 30 mg/kg.
Representative compounds of the present invention were tested according to the procedure described, with results as listed in Table 3 below.

[3] = seminal vesicle wet weight, read-out: Inhibition of seminal vesicle (non-weight seminal vesicle weight, mg)
[4] = ventral prostate wet weight, read-out: Inhibition of prostate (non-weight prostate weight, mg)
[5] = levator ani wet weight, read-out: % levator ani Stimulation
[6] = ventral prostate wet weight, read-out: % Prostate Stimulation

SMILES	inhibition in vivo at 30 mg/kg [1, 3] [%]	inhibition in vivo at 30 mg/kg [1, 4] [%]	% levator ani Stimulation ([2]; levator ani wet weight)	% Prostate Stimulation ([2]; ventral prostate wet weight)	change in vivo at 30 mg/kg [2, 5] [%]	change in vivo at 30 mg/kg [2, 6] [%]	Inhibition of prostate (non-weight prostate weight, mg) ([1]; ventral prostate wet weight)	Inhibition of seminal vesicle (non-weight seminal vesicle weight, mg) ([1]; seminal vesicle wet weight)
CC12CC=NN1C(=O)N(c1ccc(C#N)c(C(F)(F)F)c1)C2=O (centres unmarked) [Compound 4, 4-(3a-Methyl-4,6-dioxo-3a,4-dihydro-3H-imidazo[1,5-b]pyrazol-5-yl)-2-trifluoromethyl-benzonitrile]	5 to 30	5 to 30	Inactive	inactive				
CC12CC(C(F)(F)F)=NN1C(=O)N(c1ccc(C#N)c(C(F)(F)F)c1)C2=O (centres unmarked) [Compound 1, 4-(3a-Methyl-4,6-dioxo-2-trifluoromethyl-3a,4-dihydro-3H-imidazo[1,5-b]pyrazol-5-yl)-2-trifluoromethyl-benzonitrile]	5 to 30	5 to 30			≥ 30	5 to 30		
CCOC(=O)C1=NN2C(=O)C(=O)N(c3ccc(C#N)c(C(F)(F)F)c3)C(=O)C2(C)C1 (centres unmarked) [Compound 8, 5-(4-Cyano-3-trifluoromethyl-phenyl)-3a-methyl-4,6,7-trioxo-3,3a,4,5,6,7-hexahydro-pyrazolo[1,5-a]pyrazine-2-carboxylic acid ethyl ester]	5 to 30			inactive	5 to 30		inactive	
C[C@]12CC(C(F)(F)F)=NN1C(=O)N(c1ccc(C#N)c(C(F)(F)F)c1)C2=O [Compound 2, (R)-4-(3a-Methyl-4,6-dioxo-2-trifluoromethyl-3a,4-dihydro-3H-imidazo[1,5-b]pyrazol-5-yl)-2-trifluoromethyl-benzonitrile]	5 to 30	5 to 30			≥ 30	5 to 30		
C[C@@]12CC(C(F)(F)F)=NN1S(=O)(=O)N(c1ccc(C#N)c(C(F)(F)F)c1)C2=O [Compound 11, 4-(3a-Methyl-1,1,3-trioxo-5-trifluoromethyl-3a,4-dihydro-3H-1I6-thia-2,6,6a-triaza-pentalen-2-yl)-2-trifluoromethyl-benzonitrile]	5 to 30	5 to 30			≥ 30	≥ 30		
CCOC(=O)C1=NN2C(=O)N(c3ccc([N+](=O)[O-])c(C(F)(F)F)c3)C(=O)C2(C)C1 (centres unmarked) [Compound 6, 3a-Methyl-5-(4-nitro-3-trifluoromethyl-phenyl)-4,6-dioxo-3a,4,5,6-tetrahydro-3H-imidazo[1,5-b]pyrazole-2-carboxylic acid ethyl ester]	5 to 30	5 to 30	Inactive	inactive				
CC12CNC(=O)N1C(=O)N(c1ccc(C#N)c(C(F)(F)F)c1)C2=O (centres unmarked) [Compound 15, 4-(7a-Methyl-1,3,5-trioxo-tetrahydro-imidazo[1,5-c]imidazol-2-yl)-2-trifluoromethyl-benzonitrile]	≥ 30	≥ 30	Inactive	inactive				
C[C@@]12CC(C(F)(F)F)=NN1C(=O)N(c1ccc(C#N)c(C(F)(F)F)c1)C2=O [Compound 3, (S)-4-(3a-Methyl-4,6-dioxo-2-trifluoromethyl-3a,4-dihydro-3H-imidazo[1,5-b]pyrazol-5-yl)-2-trifluoromethyl-benzonitrile]	5 to 30	5 to 30			≥ 30	≥ 30		
C[C@@]12CC(C(F)(F)F)=NN1[S+]([O-])N(c1ccc(C#N)c(C(F)(F)F)c1)C2=O (stereo partly drawn) [Compound 10, (S)-4-(3a-Methyl-1,3-dioxo-5-trifluoromethyl-3a,4-dihydro-3H-1I4-thia-2,6,6a-triaza-pentalen-2-yl)-2-trifluoromethyl-benzonitrile]	5 to 30	≥ 30			≥ 30	≥ 30		
CC12CNC(=O)N1C(=O)N(c1ccc(Cl)c(C(F)(F)F)c1)C2=O (centres unmarked) [Compound 13, 2-(4-Chloro-3-trifluoromethyl-phenyl)-7a-methyl-dihydro-imidazo[1,5-c]imidazole-1,3,5-trione]	≥ 30	≥ 30	Inactive	inactive				
CCOC(=O)C1=NN2C(=O)N(c3ccc(C#N)c(C(F)(F)F)c3)C(=O)C2(C)C1 (centres unmarked) [Compound 5, 5-(4-Cyano-3-trifluoromethyl-phenyl)-3a-methyl-4,6-dioxo-3a,4,5,6-tetrahydro-3H-imidazo[1,5-b]pyrazole-2-carboxylic acid ethyl ester]	5 to 30	5 to 30	Inactive	inactive				
CN1CC2(C)C(=O)N(c3ccc(Cl)c(C(F)(F)F)c3)C(=O)N2C1=O (centres unmarked) [Compound 16, 2-(4-Chloro-3-trifluoromethyl-phenyl)-6,7a-dimethyl-dihydro-imidazo[1,5-c]imidazole-1,3,5-trione]	≥ 30	≥ 30	Inactive	inactive				
CC12COC(=O)N1C(=O)N(c1ccc(Cl)c(C(F)(F)F)c1)C2=O (centres unmarked) [Compound 12, 6-(4-Chloro-3-trifluoromethyl-phenyl)-7a-methyl-dihydro-imidazo[1,5-c]oxazole-3,5,7-trione]	5 to 30	5 to 30	Inactive	inactive				
CC(=O)Nc1ccc(C2=NN3C(=O)N(c4ccc(C#N)c(C(F)(F)F)c4)C(=O)C3(C)C2)cc1 (centres unmarked) [Compound 7, N-{4-[5-(4-Cyano-3-trifluoromethyl-phenyl)-3a-methyl-4,6-dioxo-3a,4,5,6-tetrahydro-3H-imidazo[1,5-b]pyrazol-2-yl]-phenyl}-acetamide]		5 to 30			5 to 30	5 to 30		Inactive
